Test results reported in patent publication US20040005294A1, “IGFBP-3 in the diagnosis and treatment of cancer” (priority 2002, published 2004).

Tests used:
Type in all cases: cell-based, human
NHBE cells [1] = assay: MTT proliferation assay, NHBE cells (deguelin); details: 10^−9 M to 10^−7 M
Experimental: To measure the effects of deguelin on cell proliferation, NHBE, 1799, 1198, 1170-1, and HB56B cells were plated at concentrations of 2×10^3 to 4×10^3 cells/well in 96-well plates. The next day, cells were treated with either 0.1% DMSO as a diluent control or various concentrations of deguelin (final DMSO concentration=0.1%). At the end of the assay time period, cell proliferation was measured by the 3-(4,5-dimethylthiazol-2-yl)-2,5-diphenyltetrazolium bromide (MTT) assay as described (Lee et al., 2002). Six replicate wells were used for each analysis, and data from replicate wells are presented as means with 95% confidence intervals (CIs). For some experiments, the drug concentration required to inhibit cell growth by 50% (IC50) was determined by interpolation from dose-response curves. At least three independent experiments were performed.

NHBE cells [2] = assay: Cell cycle analysis by flow cytometry, NHBE cells; details: 10^−7 M, 3 days
Experimental: NHBE and 1799 cells were plated at a concentration of 2×10^5 cells/well in six-well plates. The next day, cells were treated with deguelin (various concentrations) or DMSO (0.1%) for 3 days to achieve maximal antiproliferative effects (determined from growth curves). All cells (nonadherent and adherent) were harvested, fixed with 1% paraformaldehyde and 70% ethanol, stained with 50 μg/mL propidium iodide, and subjected to flow cytometric analysis to determine the percentage of cells in specific phases of the cell cycle (G1, S, and G2/M) as described (Sun et al., 1997). Flow cytometric analysis was performed using a Coulter EPICS Profile II flow cytometer (Coulter Corp., Miami, Fla.) equipped with a 488-nm argon laser. Approximately 10 000 events (cells) were evaluated for each sample. Two independent experiments were performed and one is presented.

[3] = tested on: PI3K/Akt pathway in 1799 cells; assay: Immunoblot of pAkt and pGSK-3β, 1799 cells; details: 10^−7 M
Experimental: Whole cell lysates from 1×10^6 cells were prepared in lysis buffer as described (Lonardo et al., 2002). Equivalent amounts of protein were resolved by sodium dodecyl sulfate (SDS)-polyacrylamide gels (7.5%-12%) and transferred to a nitrocellulose membrane. After the membrane was blocked in Tris-buffered saline (TBS) containing 0.05% Tween 20 (TBST) and 5% (w/v) nonfat powdered milk, the membrane was incubated with primary antibody at the appropriate dilution in TBS-5% nonfat milk at 4° C. for 16 h. The membrane was then washed multiple times with TBST and incubated with the appropriate horseradish peroxidaseconjugated secondary antibody for 1 h at room temperature. The protein-antibody complexes were detected by enhanced chemilurminescence (ECL kit; Amersham, Arlington Heights, Ill.), according to the manufacturer's recommended protocol. […]

PI3K in 1799 cells = assay: PI3K assay of immunoprecipitates; details: 10^−7 M, IGF-I activated
Experimental: Approximately 5×10^6 1799 cells were treated with 10^−7 M deguelin or 0.1% DMSO for different time periods (0-24 h) in the absence of any additional stimulatory growth factors. PI3K in these cells was then activated by treatment with 50 ng/mL IGF-I for 15 min. Cells were lylsed, and PI3K was immunoprecipitated from 500 μg of total cell extracts with 5 μL of rabbit antibody against full-length rat p85 PI3K (Upstate Biotechnology, Inc.), which coprecipitates the p110 catalytic subunit of PI3K, and 20 μL of protein A-sepharose beads (Amersham Pharmacia Biotech). PI3K activity in the immunoprecipitates was analyzed using bovine brain extract (Type I; Sigma-Aldrich), which contains a mixture of phosphatidylinositol, phosphatidylinositol 4-phosphate, and phosphatidylinositol 4,5-bisphosphate as a substrate, as described (Hsu et al., 2000). Jurkat cell lysates (Upstate Biotechnology, Inc.) and IGF-I-activated […] NSCLC cell lysates were used as positive controls.

squamous HBE cells [4] = assay: MTT proliferation assay, squamous HBE cells; details: 1 day
squamous HBE cells [5] = assay: Immunoblot of pAkt, pGSK-3β, caspase-3 and PARP, squamous HBE cells
Experimental: Whole cell lysates from 1×10^6 cells were prepared in lysis buffer as described (Lonardo et al., 2002). Equivalent amounts of protein were resolved by sodium dodecyl sulfate (SDS)-polyacrylamide gels (7.5%-12%) and transferred to a nitrocellulose membrane. After the membrane was blocked in Tris-buffered saline (TBS) containing 0.05% Tween 20 (TBST) and 5% (w/v) nonfat powdered milk, the membrane was incubated with primary antibody at the appropriate dilution in TBS-5% nonfat milk at 4° C. for 16 h. The membrane was then washed multiple times with TBST and incubated with the appropriate horseradish peroxidaseconjugated secondary antibody for 1 h at room temperature. The protein-antibody complexes were detected by enhanced chemilurminescence (ECL kit; Amersham, Arlington Heights, Ill.), according to the manufacturer's recommended protocol.
To determine whether deguelin-induced antiproliferative effects on premalignant HBE cells were mediated through the inhibition of the PI3K/Akt pathway, 2×10^5 1799 cells/well or 1×10 ^6 squamous HBE cells/well in six-well plates were infected with 5×10 ^3 particles/cell of a control virus (Ad5CMV) or with 1×10^3 or 5×10^3 particles/cell of Ad5CMV-MyrAkt-HA, an adenoviral vector that expresses a constitutively active Akt. […] Apoptosis was analyzed using the APO-BrdU staining kit for TUNEL, Western blot analyses for caspase-3, and the cleavage of PARP.

Q: Which “effect on growth of NHBE cells” value (NHBE cells [1]) does the source give for `COc1cc2c(cc1OC)[C@@H]1C(=O)c3ccc4c(c3O[C@@H]1CO2)C=CC(C)(C)O4` [deguelin, Deguelin] here?
A: The value was “minimal effect”.

Q: And the cell cycle distribution (NHBE cells [2])?
A: The cell cycle distribution was “No detectable cell cycle changes”.

Q: What about the “levels of pAkt and pGSK-3β” value ([3]; 0-24 h) of the same molecule?
A: Its value is “time-dependent decrease in the levels of pAkt and pGSK-3β”.

Q: What about the pAkt level ([3]; by 14 h) of the same molecule?
A: Its pAkt level is “virtually undetectable”.

Q: And the “decrease in PI3K activity compared with untreated cells” value (PI3K in 1799 cells)?
A: Its value is “approximately 55%”.

Q: What about the “proliferation of control squamous HBE cells” value (squamous HBE cells [4]; 10^−7 M or 10^−6 M) of the same molecule?
A: Its value is “decreased proliferation of control squamous HBE cells in a dose-dependent manner”.

Q: What about the “growth as percent of untreated cells” value (squamous HBE cells [4]; squamous HBE cells overexpressing constitutively active Akt, 10^−7 M to 10^−6 M) of the same molecule?
A: The value was “approximately 95%”.

Q: And the “levels of pAkt and pGSK-3β” value (squamous HBE cells [5])?
A: Its value is “decreased the levels of pAkt and pGSK-3β in a time-dependent manner”.

Q: And the PARP cleavage (squamous HBE cells [5]; 10^−9 M to 10^−7 M, 1 day)?
A: Its PARP cleavage is “increased PARP cleavage”.
